The record followed here is PMC8251769, “Phosphonate as a Stable Zinc‐Binding Group for “Pathoblocker” Inhibitors of Clostridial Collagenase H (ColH)” (Chemmedchem, 2021).

T2 sequence (O15379 whole entry): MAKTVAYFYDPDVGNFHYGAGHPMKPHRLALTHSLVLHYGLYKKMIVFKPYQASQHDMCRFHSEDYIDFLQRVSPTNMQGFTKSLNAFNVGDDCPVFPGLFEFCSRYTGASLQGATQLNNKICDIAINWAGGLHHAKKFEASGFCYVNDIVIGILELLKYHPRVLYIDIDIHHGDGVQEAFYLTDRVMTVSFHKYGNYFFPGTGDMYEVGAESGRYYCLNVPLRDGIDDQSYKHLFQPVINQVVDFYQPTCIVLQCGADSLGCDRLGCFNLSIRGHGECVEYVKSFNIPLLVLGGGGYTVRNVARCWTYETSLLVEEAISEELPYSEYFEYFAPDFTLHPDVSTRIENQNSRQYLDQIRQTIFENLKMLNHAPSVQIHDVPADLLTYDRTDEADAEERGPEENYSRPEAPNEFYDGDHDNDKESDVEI

The target of the first assay is T1, MMP-14 (Homo sapiens, UniProt P50281).
T1 construct: gene MMP14; catalytic domain, AnaSpec
In words: SensoLyte […] generic MMP activity kit. The settings on record: read-out: Inhibition [%] at 100 μM compound^[a] / 26 (phosphonate). It is filed as biochemical.
`CC(=O)c1ccc(NC(=O)CP(=O)(O)O)cc1` [compound 26, Disodium (2-((4-acetylphenyl)amino)-2-oxoethyl)phosphonate]: the inhibition at 100 µM was 47 ± 13%.

A further assay has as its target T2, HDAC-3 (Homo sapiens, UniProt O15379).
T2 construct: gene HDAC3
The assay is described as follows: fluorescence inhibitor screening kit. It is filed as biochemical. The settings on record: read-out: Inhibition [%] at 100 μM compound^[a] / 5 a (thiol). From the text: fluorescence inhibitor screening kit on HDAC-3
As to `CC(=O)c1ccc(NC(=O)CS)cc1` [5a, thiol 5 a], the inhibition at 100 µM was 51 ± 7%.

The target in another assay is ColH-PD (peptidase domain of collagenase H) (Hathewaya histolytica, UniProt Q46085). In words: biochemical.
ColH-PD (peptidase domain of collagenase H), sequence (Q46085 331-721 limits assumed): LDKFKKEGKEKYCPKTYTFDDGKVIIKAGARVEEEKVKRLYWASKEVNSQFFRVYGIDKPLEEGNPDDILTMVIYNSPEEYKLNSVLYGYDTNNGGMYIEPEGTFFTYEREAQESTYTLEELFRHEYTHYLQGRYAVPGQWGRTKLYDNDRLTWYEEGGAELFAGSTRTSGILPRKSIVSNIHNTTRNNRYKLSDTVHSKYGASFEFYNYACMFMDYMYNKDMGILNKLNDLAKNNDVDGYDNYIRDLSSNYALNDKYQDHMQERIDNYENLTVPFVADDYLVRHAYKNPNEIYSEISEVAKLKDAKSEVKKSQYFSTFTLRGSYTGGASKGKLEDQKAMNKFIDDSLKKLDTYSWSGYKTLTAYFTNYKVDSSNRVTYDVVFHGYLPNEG
Details: not given
`CC(=O)c1ccc(NC(=O)Cn2ncnn2)cc1` [compound 18, N-(4-acetylphenyl)-2-(2H-tetrazol-2-yl)acetamide]: the IC50 (in general, the concentration that gives 50% inhibition) is greater than 500 µM.

Turning to `CC(=O)c1ccc(NC(=O)CP(C)(=O)O)cc1` [compound 25, Sodium (2-((4-acetylphenyl)amino)-2-oxoethyl)(methyl)phosphinate], the IC50 is greater than 500 µM.

`CC(=O)c1ccc(NC(=O)Cc2nn[nH]n2)cc1` [compound 19, N-(4-Acetylphenyl)-2-(2H-tetrazol-5-yl)acetamide] came in with an IC50 of 22 ± 1 µM.

Consider `CC(=O)c1ccc(NC(=O)Cn2cncn2)cc1` [compound 16, N-(4-Acetylphenyl)-2-(1H-1,2,4-triazol-1-yl)acetamide], for which the half-maximal inhibitory concentration (IC50) is greater than 500 µM.

`CC(=O)c1ccc(NC(=O)Cn2cnnn2)cc1` [compound 17, N-(4-Acetylphenyl)-2-(1H-tetrazol-1-yl)acetamide] had a concentration for half-maximal inhibition (IC50) greater than 500 µM.

The compound `O=C(O)CCC(=O)Nc1ccccc1` [compound 10, 4-Oxo-4-(phenylamino)butanoic acid] registered an IC50 greater than 500 µM.

For `CC(=O)c1ccc(NC(=O)Cn2ccnn2)cc1` [compound 14, N-(4-Acetylphenyl)-2-(1H-1,2,3-triazol-1-yl)acetamide], the IC50 is greater than 500 µM.

`CC(=O)c1ccc(NC(=O)Cc2c[nH]cn2)cc1` [compound 20, N-(4-Acetylphenyl)-2-(1H-imidazol-4-yl)acetamide]: the IC50 is greater than 500 µM.

Compound `O=C(CC(=O)Nc1ccccc1)NO` [compound 11, N^1-Hydroxy-N^3-phenylmalonamide] returned an IC50 of roughly 500 µM.

In the case of `O=C(O)CC(=O)Nc1ccccc1` [compound 9, 3-Oxo-3-(phenylamino)propanoic acid], the IC50 is greater than 500 µM.

For the compound `CC(=O)c1ccc(NC(=O)CC#N)cc1` [compound 23, N-(4-Acetylphenyl)-2-cyanoacetamide], the IC50 is greater than 500 µM.

With `CCOP(C)(=O)CC(=O)Nc1ccc(C(C)=O)cc1` (centres unmarked) [compound 27, Ethyl (2-((4-acetylphenyl)amino)-2-oxoethyl)(methyl)phosphinate], the concentration for half-maximal inhibition (IC50) is greater than 500 µM.

As for `CC(=O)c1ccc(NC(=O)Cn2ccnc2)cc1` [compound 15, N-(4-Acetylphenyl)-2-(1H-imidazol-1-yl)acetamide], half-maximal inhibition (IC50) was put at 448 ± 33 µM.

On to `NC(=O)CC(=O)Nc1ccccc1` [compound 8, N^1-Phenylmalonamide], for which the IC50 was greater than 500 µM.

Compound `CC(=O)c1ccc(NC(=O)CS(=O)(=O)O)cc1` [compound 24, Sodium 2-((4-acetylphenyl)amino)-2-oxoethane-1-sulfonate] displayed an IC50 greater than 500 µM.

The same assay, now with this note: read-out: IC50.
In the case of `CC(=O)c1ccc(NC(=O)CP(=O)(O)O)cc1` [compound 26, Disodium (2-((4-acetylphenyl)amino)-2-oxoethyl)phosphonate], the IC50 came out at 7 ± 1 µM.

In a further assay the target is T3, HDAC-8 (Homo sapiens, UniProt Q9BY41).
T3 construct: gene HDAC8
T3 sequence (Q9BY41 1-377): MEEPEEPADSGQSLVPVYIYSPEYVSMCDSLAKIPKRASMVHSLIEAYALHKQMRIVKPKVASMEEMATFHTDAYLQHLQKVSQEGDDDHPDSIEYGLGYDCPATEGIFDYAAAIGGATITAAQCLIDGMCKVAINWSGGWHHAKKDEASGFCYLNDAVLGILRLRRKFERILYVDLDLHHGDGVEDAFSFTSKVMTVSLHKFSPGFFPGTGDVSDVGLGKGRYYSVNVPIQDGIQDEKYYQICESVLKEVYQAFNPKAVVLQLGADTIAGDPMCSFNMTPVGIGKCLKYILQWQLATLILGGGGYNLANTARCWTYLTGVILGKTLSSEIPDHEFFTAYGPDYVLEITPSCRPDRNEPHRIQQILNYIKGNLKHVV
In words: fluorescence inhibitor screening kit. It is filed as biochemical. To be noted: read-out: Inhibition [%] at 100 μM compound^[a] / 5 a (thiol). From the text: fluorescence inhibitor screening kit on HDAC-8
On to `CC(=O)c1ccc(NC(=O)CS)cc1` [5a, thiol 5 a], for which the inhibition at 100 µM was found to be 48 ± 5%.

The target of the next assay is T4, MMP-8 (Homo sapiens, UniProt P22894).
T4 construct: gene MMP8; catalytic domain, AnaSpec
T4 sequence (P22894 100-262 limits assumed): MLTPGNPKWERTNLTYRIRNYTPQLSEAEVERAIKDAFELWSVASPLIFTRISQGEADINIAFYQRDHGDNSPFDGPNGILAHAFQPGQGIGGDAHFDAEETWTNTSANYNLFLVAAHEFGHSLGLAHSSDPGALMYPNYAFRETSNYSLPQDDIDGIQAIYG
The assay is described as follows: SensoLyte […] generic MMP activity kit. It is filed as biochemical. To be noted: read-out: Inhibition [%] at 100 μM compound^[a] / 26 (phosphonate).
Take `CC(=O)c1ccc(NC(=O)CP(=O)(O)O)cc1` [compound 26, Disodium (2-((4-acetylphenyl)amino)-2-oxoethyl)phosphonate]: the inhibition at 100 µM is 36 ± 1%.
